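Dose response: 5 concentrations. Exposure: 48 h. Format: 96-well plates. Endpoint: linear interpolation; highest concentration if not reached. GI50 marks 50% less growth. Definition used: TGI = concentration required for complete inhibition of growth.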

GI50 and TGI data for ten compounds are collected here from PubChem BioAssay (NCI).

Some test systems named below: OVCAR-3 ovarian; RPMI-8226 leukemia; HCT-116 colon; SN12C renal; MALME-3M melanoma; KM12 colon; A498 renal; UO-31 renal; HCC-2998 colon; SR leukemia.
Holding throughout (test): growth of human tumour cells (NCI), 48 h

Consider `CC(=O)[CH-]C(=O)c1ccccc1.CC(=O)[CH-]C(=O)c1ccccc1.CC(=O)[CH-]C(=O)c1ccccc1.[In+3]`, for which the GI50 is 78 µM in the assay on OVCAR-3 ovarian; 19.2 µM in the assay with RPMI-8226 leukemia; 9.32 µM with HCT-116 colon; 21.2 µM in the assay with SN12C renal; 25.2 µM in the assay with MALME-3M melanoma; 61.7 µM in the assay on KM12 colon. In addition, the GI50 was 23.2 µM with A498 renal and 29.7 µM with UO-31 renal. In addition, the TGI is more than 100 µM in the assay on OVCAR-3 ovarian; 64.4 µM in the assay on RPMI-8226 leukemia; more than 100 µM in the assay with HCT-116 colon; more than 100 µM in the assay with SN12C renal; 84.1 µM in the assay with MALME-3M melanoma; more than 100 µM with KM12 colon. In addition, the TGI came out at 56.8 µM with A498 renal and 94 µM in the assay with UO-31 renal.

Consider `Cc1[nH]c(=O)nc(Nc2ccc(Cl)cc2)c1C(=O)N1CCN(CCO)CC1`, for which the GI50 with OVCAR-3 ovarian was more than 100 µM; with HCC-2998 colon, more than 100 µM; in the assay on RPMI-8226 leukemia it was more than 100 µM; in the assay on HCT-116 colon, 81.9 µM; in the assay on SN12C renal it was more than 100 µM; with MALME-3M melanoma, 29.9 µM. Further, the GI50 in the assay on KM12 colon was more than 100 µM; in the assay on A498 renal, 42.2 µM; in the assay on UO-31 renal it was more than 100 µM. In addition, the TGI in the assay on OVCAR-3 ovarian, with HCC-2998 colon, in the assay on RPMI-8226 leukemia, in the assay with HCT-116 colon, in the assay on SN12C renal and in the assay with MALME-3M melanoma was more than 100 µM in each case. For the same compound, the TGI in the assay with KM12 colon, in the assay with A498 renal and in the assay on UO-31 renal was more than 100 µM each time.

With `C[C@]12CCC(=O)CC1CCCC2=O` (some centres not stated), the TGI in the assay with OVCAR-3 ovarian, in the assay with HCC-2998 colon, in the assay on RPMI-8226 leukemia, in the assay on HCT-116 colon, in the assay on SN12C renal and in the assay on MALME-3M melanoma was more than 100 µM in each case. Also, the TGI in the assay with KM12 colon, in the assay with A498 renal and with UO-31 renal was more than 100 µM each time.

On to `COc1ccc(C(=O)/C=C/c2cccc(Nc3ccnc4cc(Cl)ccc34)c2)cc1`, for which the GI50 is 0.491 µM in the assay with SR leukemia; 0.572 µM with RPMI-8226 leukemia; 0.844 µM with HCT-116 colon; 1.79 µM in the assay with MALME-3M melanoma; 2.45 µM in the assay on KM12 colon; 3 µM in the assay with A498 renal. Besides, the TGI is 3.77 µM with SR leukemia; 13.8 µM in the assay with RPMI-8226 leukemia; 12.2 µM in the assay on HCT-116 colon; 6.3 µM in the assay on MALME-3M melanoma; more than 100 µM in the assay with KM12 colon; 55.3 µM with A498 renal.

For `O=C(NC(=Nc1ccccc1)SCCSC(=Nc1ccccc1)NC(=O)c1cccs1)c1cccs1`, the TGI with OVCAR-3 ovarian, with HCC-2998 colon, in the assay with RPMI-8226 leukemia, with HCT-116 colon, in the assay on SN12C renal and with MALME-3M melanoma was more than 100 µM each time. Also, the TGI in the assay on KM12 colon was more than 100 µM; in the assay on A498 renal it was more than 100 µM; with UO-31 renal it was 92.8 µM.

Regarding `COc1cc(/C=C/C(=O)c2ccc(F)cc2)ccc1OCCCN1CCN(CC(=O)Nc2ccc(Cl)cc2C(=O)c2ccccc2Cl)CC1`, the GI50 in the assay on OVCAR-3 ovarian is 11.3 µM; in the assay with HCC-2998 colon, 16.6 µM; in the assay on RPMI-8226 leukemia it was 2 µM; in the assay with HCT-116 colon, 2.23 µM; in the assay with SN12C renal it was 12.7 µM; with MALME-3M melanoma, 4.23 µM. Besides, the GI50 in the assay on KM12 colon was 5.58 µM; in the assay with A498 renal, 29.4 µM; in the assay with UO-31 renal, 2.45 µM. The TGI worked out at 27.2 µM in the assay with OVCAR-3 ovarian; 40.1 µM in the assay with HCC-2998 colon; 5.46 µM in the assay on RPMI-8226 leukemia; 11.1 µM in the assay with HCT-116 colon; 44.3 µM in the assay on SN12C renal; 15.7 µM in the assay on MALME-3M melanoma. Further, the TGI with KM12 colon was 22.2 µM; in the assay on A498 renal it was more than 100 µM; in the assay with UO-31 renal it was 20 µM.

As to `COc1cc([N+](=O)[O-])c(OC)cc1-c1nc2sccn2c1/C=N/N=C(N)N`, the GI50 was 14.6 µM in the assay on OVCAR-3 ovarian; more than 100 µM in the assay with RPMI-8226 leukemia; 21.7 µM in the assay with HCT-116 colon; 9.36 µM in the assay with SN12C renal; 11 µM in the assay on MALME-3M melanoma; 4.36 µM with KM12 colon. Besides, the GI50 in the assay on A498 renal is 27.4 µM; with UO-31 renal, 42.5 µM. The TGI in the assay with OVCAR-3 ovarian was 66.5 µM; with RPMI-8226 leukemia, more than 100 µM; in the assay on HCT-116 colon, 94.4 µM; in the assay on SN12C renal, 42.1 µM; with MALME-3M melanoma, 40.7 µM; in the assay with KM12 colon, more than 100 µM. Further, the TGI in the assay on A498 renal was 66.5 µM; with UO-31 renal, more than 100 µM.

With `COc1cccc(-c2cc3c4c(nc5ccccc53)C(=O)c3cccnc3-c4n2)c1`, the GI50 is 0.3 µM in the assay on OVCAR-3 ovarian; 2.2 µM with HCC-2998 colon; 1.2 µM in the assay with RPMI-8226 leukemia; 1.3 µM with HCT-116 colon; 2.44 µM with SN12C renal; 0.822 µM in the assay with MALME-3M melanoma. In addition, the GI50 was 1.54 µM in the assay on KM12 colon, 14.1 µM with A498 renal and 2.02 µM with UO-31 renal. Also, the TGI in the assay on HCC-2998 colon was 4.61 µM; with RPMI-8226 leukemia it was 4.22 µM; in the assay on HCT-116 colon, 5.75 µM; in the assay with SN12C renal it was 6.54 µM; with MALME-3M melanoma it was 3.32 µM; with KM12 colon, 3.75 µM. For the same compound, the TGI worked out at 29.5 µM with A498 renal and 8.45 µM in the assay with UO-31 renal.

Consider `CCOC(=O)/C(O)=C(/C(=O)OC)c1ccc(Cl)cc1`, for which the TGI in the assay on OVCAR-3 ovarian, with HCC-2998 colon, in the assay with RPMI-8226 leukemia, with SN12C renal, in the assay with MALME-3M melanoma and in the assay with KM12 colon was more than 100 µM in each case. For the same compound, the TGI in the assay with A498 renal and in the assay on UO-31 renal was more than 100 µM in each case.

`Cn1cc(-c2csc(-c3cn(CCCN4CCCCC4)c4ccccc34)n2)c2cccnc21`: the GI50 is 1.7 µM with OVCAR-3 ovarian; 1.68 µM with HCC-2998 colon; 1.79 µM in the assay on SN12C renal; 1.61 µM in the assay with MALME-3M melanoma; 1.72 µM in the assay on KM12 colon; 13.7 µM in the assay on A498 renal. Besides, the GI50 with UO-31 renal was 1.51 µM. In addition, the TGI in the assay with OVCAR-3 ovarian came out at 3.14 µM; with HCC-2998 colon, 3.23 µM; in the assay on SN12C renal, 3.31 µM; with MALME-3M melanoma, 3.19 µM; in the assay on KM12 colon it was 3.25 µM; with A498 renal, 28.7 µM. The TGI in the assay on UO-31 renal is 2.93 µM.
